Drawing on US7064120B2, “Tricyclic pyridyl carboxamides and derivatives thereof tocolytic oxytocin receptor antagonists” (Wyeth, priority 2001, dated 2006), this text covers inhibition and IC50 for 19 compounds.

Each structure is given as a SMILES string.

As usually defined, the inhibition is the drop in the measured response relative to a control, in per cent. The IC50 is the concentration at which inhibition is half-maximal.

One assay concerns the target T1, human oxytocin receptor (Homo sapiens, UniProt P30559).
T1 construct: host or cells: CHO cells, stably transfected (pcDNA3.1 vector)
T1 sequence (P30559 1-389): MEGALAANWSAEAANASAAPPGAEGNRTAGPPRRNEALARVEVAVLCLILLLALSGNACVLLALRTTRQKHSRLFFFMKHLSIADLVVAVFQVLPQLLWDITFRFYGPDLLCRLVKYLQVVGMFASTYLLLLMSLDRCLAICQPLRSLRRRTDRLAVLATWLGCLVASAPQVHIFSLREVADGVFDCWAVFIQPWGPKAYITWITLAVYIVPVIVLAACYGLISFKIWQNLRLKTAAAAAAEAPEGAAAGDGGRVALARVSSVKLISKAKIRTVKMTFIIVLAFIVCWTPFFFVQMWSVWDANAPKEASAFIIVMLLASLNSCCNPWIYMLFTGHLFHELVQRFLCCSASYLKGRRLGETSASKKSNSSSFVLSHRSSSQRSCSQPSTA
The assay can be described thus: Oxytocin binding in CHO cell membranes expressing human oxytocin receptors ([3H]oxytocin radioligand binding). The note with it: 100 nM, read-out: OT % inhibition @ 100 nM. An outline of the steps: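 Values are % inhibition at one concentration or nM IC50 from [3H]oxytocin displacement. Membranes from human oxytocin receptor CHO cells, 25–50 μg protein/well, 60 min at room temperature, pH 7.4 Tris buffer with protease inhibitors; bound label by filtration and scintillation counting.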
Turning to `COc1cc(-c2ccccc2C)c(Cl)cc1C(=O)N1Cc2ccc(C(=O)N3CCN(c4ccccn4)CC3)n2Cc2ccccc21` [Example 81, {10-[(6-Chloro-3-methoxy-2′-methyl-[1,1′-biphenyl]-4-yl)carbonyl]-10,11-dihydro-5H-pyrrolo[2,1-c][1,4]benzodiazepin-3-yl}[4-(2-pyridinyl)-1-piperazinyl]methanone], the inhibition at 0.1 µM is 50%.
Still for that read-out and setting: to `COc1cccc(-c2cc(OC)c(C(=O)N3Cc4ccc(C(=O)N5CCN(c6ccccn6)CC5)n4Cc4ccccc43)cc2Cl)c1` [Example 82, {10-[(6-Chloro-3,3′-dimethoxy-[1,1′-biphenyl]-4-yl)carbonyl]-10,11-dihydro-5H-pyrrolo[2,1-c][1,4]benzodiazepin-3-yl}[4-(2-pyridinyl)-1-piperazinyl]methanone] belongs 27%.
With `COc1ccccc1-c1ccc(C(=O)N2Cc3ccc(C(=O)N4CCN(c5ccccn5)CC4)n3Cc3ccccc32)cc1OC` [Example 84, {10-[(2,2′-Dimethoxy-[1,1′-biphenyl]-4-yl)carbonyl]-10,11-dihydro-5H-pyrrolo[2,1-c][1,4]benzodiazepin-3-yl}[4-(2-pyridinyl)-1-piperazinyl]methanone], the inhibition at 0.1 µM was found to be 46%.
In the case of `COc1cccc(-c2ccc(C(=O)N3Cc4ccc(C(=O)N5CCN(c6ccccn6)CC5)n4Cc4ccccc43)cc2OC)c1` [Example 85, {10-[(2,3′-Dimethoxy-[1,1′-biphenyl]-4-yl)carbonyl]-10,11-dihydro-5H-pyrrolo[2,1-c][1,4]benzodiazepin-3-yl}[4-(2-pyridinyl)-1-piperazinyl]methanone], the inhibition at 0.1 µM came out at 32%.
Still for that read-out and setting: in the case of `O=C(c1ccc2n1Cc1ccccc1N(C(=O)c1ccc(-c3cccc4ccccc34)cc1Cl)C2)N1CCN(c2ccccn2)CC1` [Example 86, {10-[2-Chloro-4-(naphthalen-1-yl)benzoyl]-10,11-dihydro-5H-pyrrolo[2,1-c][1,4]benzodiazepin-3-yl}[4-(2-pyridinyl)-1-piperazinyl]methanone] it was 21%; in that of `Cc1cc(C(=O)N2Cc3ccc(C(=O)N4CCN(c5ccccn5)CC4)n3Cc3ccccc32)ccc1-c1ccccc1C(F)(F)F` [Example 87, (10-{[2-Methyl-2′-trifluoromethyl-[1,1′-biphenyl]-4-yl]carbonyl}-10,11-dihydro-5H-pyrrolo[2,1-c][1,4]benzodiazepin-3-yl)[4-(2-pyridinyl)-1-piperazinyl]methanone], 52%.
`COc1ccccc1-c1ccc(C(=O)N2Cc3ccc(C(=O)NCc4ccncc4)n3Cc3ccccc32)cc1C` [Example 88, 10-[(2′-Methoxy-2-methyl-[1,1′-biphenyl]-4-yl)carbonyl]-N-(4-pyridinylmethyl)-10,11-dihydro-5H-pyrrolo[2,1-c][1,4]benzodiazepine-3-carboxamide]: the inhibition at 0.1 µM was 44%.
For the compound `Cc1ccccc1-c1ccc(C(=O)N2Cc3ccc(C(=O)NCc4ccncc4)n3Cc3ccccc32)cc1C` [Example 89, 10-[(2,2′-Dimethyl-[1,1′-biphenyl]-4-yl)carbonyl]-N-(4-pyridinylmethyl)-10,11-dihydro-5H-pyrrolo[2,1-c][1,4]benzodiazepine-3-carboxamide], the inhibition at 0.1 µM came out at 67%.
On the same count and under the same terms, to `COc1cccc(-c2ccc(C(=O)N3Cc4ccc(C(=O)NCc5ccncc5)n4Cc4ccccc43)cc2C)c1` [Example 90, 10-[(3′-Methoxy-2-methyl-[1,1′-biphenyl]-4-yl)carbonyl]-N-(4-pyridinylmethyl)-10,11-dihydro-5H-pyrrolo[2,1-c][1,4]benzodiazepine-3-carboxamide] belongs 44%; to `COc1ccccc1-c1ccc(C(=O)N2Cc3ccc(C(=O)NCc4ccncc4)n3Cc3ccccc32)cc1` [Example 91, 10-[(2′-Methoxy-[1,1′-biphenyl]-4-yl)carbonyl]-N-(4-pyridinylmethyl)-10,11-dihydro-5H-pyrrolo[2,1-c][1,4]benzodiazepine-3-carboxamide], 44%; to `Cc1ccccc1-c1ccc(C(=O)N2Cc3ccc(C(=O)NCc4ccncc4)n3Cc3ccccc32)cc1` [Example 92, 10-[(2′-Methyl-[1,1′-biphenyl]-4-yl)carbonyl]-N-(4-pyridinylmethyl)-10,11-dihydro-5H-pyrrolo[2,1-c][1,4]benzodiazepine-3-carboxamide], 30%.
Take `COc1cc(C(=O)N2Cc3ccc(C(=O)NCc4ccncc4)n3Cc3ccccc32)ccc1-c1ccccc1C` [Example 93, 10-[(2-Methoxy-2′-methyl-[1,1′-biphenyl]-4-yl)carbonyl]-N-(4-pyridinylmethyl)-10,11-dihydro-5H-pyrrolo[2,1-c][1,4]benzodiazepine-3-carboxamide]: the inhibition at 0.1 µM came to 69%.
As to `COc1cc(-c2ccccc2C)c(Cl)cc1C(=O)N1Cc2ccc(C(=O)NCc3ccncc3)n2Cc2ccccc21` [Example 94, 10-[(6-Chloro-3-methoxy-2′-methyl-[1,1′-biphenyl]-4-yl)carbonyl]-N-(4-pyridinylmethyl)-10,11-dihydro-5H-pyrrolo[2,1-c][1,4]benzodiazepine-3-carboxamide], the inhibition at 0.1 µM was 37%.
`COc1cccc(-c2cc(OC)c(C(=O)N3Cc4ccc(C(=O)NCc5ccncc5)n4Cc4ccccc43)cc2Cl)c1` [Example 95, 10-[(6-Chloro-3,3′-dimethoxy-[1,1′-biphenyl]-4-yl)carbonyl]-N-(4-pyridinylmethyl)-10,11-dihydro-5H-pyrrolo[2,1-c][1,4]benzodiazepine-3-carboxamide]: the inhibition at 0.1 µM was 7%.
On the same count and under the same terms, to `COc1cc(C(=O)N2Cc3ccc(C(=O)NCc4ccncc4)n3Cc3ccccc32)ccc1-c1cccc2ccccc12` [Example 96, 10-[3-Methoxy-4-(naphthalen-1-yl)benzoyl]-N-(4-pyridinylmethyl)-10,11-dihydro-5H-pyrrolo[2,1-c][1,4]benzodiazepine-3-carboxamide] belongs 28%; to `COc1ccccc1-c1ccc(C(=O)N2Cc3ccc(C(=O)NCc4ccncc4)n3Cc3ccccc32)cc1OC` [Example 97, 10-[(2,2′-Dimethoxy-[1,1′-biphenyl]-4-yl)carbonyl]-N-(4-pyridinylmethyl)-10,11-dihydro-5H-pyrrolo[2,1-c][1,4]benzodiazepine-3-carboxamide], 36%; to `O=C(NCc1ccncc1)c1ccc2n1Cc1ccccc1N(C(=O)c1ccc(-c3cccc4ccccc34)cc1Cl)C2` [Example 99, 10-[2-Chloro-4-(naphthalen-1-yl)benzoyl]-N-(4-pyridinylmethyl)-10,11-dihydro-5H-pyrrolo[2,1-c][1,4]benzodiazepine-3-carboxamide], 13%.
Regarding `Cc1cc(C(=O)N2Cc3ccc(C(=O)NCc4ccncc4)n3Cc3ccccc32)ccc1-c1ccccc1C(F)(F)F` [Example 100, 10-{[2-Methyl-2′-trifluoromethyl-[1,1′-biphenyl]-4-yl]carbonyl}-N-(4-pyridinylmethyl)-10,11-dihydro-5H-pyrrolo[2,1-c][1,4]benzodiazepine-3-carboxamide], the inhibition at 0.1 µM is 24%.

Staying with this assay, now noted: value in parentheses, read-out: OT (IC50).
`COc1ccccc1-c1ccc(C(=O)N2Cc3ccc(C(=O)N(C)Cc4cccnc4)n3Cc3ccccc32)cc1C` [Example 101, 10-[(2′-Methoxy-2-methyl-[1,1′-biphenyl]-4-yl)carbonyl]-N-methyl-N-(3-pyridinylmethyl)-10,11-dihydro-5H-pyrrolo[2,1-c][1,4]benzodiazepine-3-carboxamide]: the 50% inhibitory concentration (IC50) amounted to 2.23 nM.
